Test results reported in ChEMBL document CHEMBL3046837, “Synthesis of some novel amino and thiotetrazole purine derivatives and investigation of their antimicrobial activity and DNA interactions” (Med Chem Res, 2013).
The source made the active and inactive calls. No cut-off for these calls is given here.

How the values were obtained:
[1] = system: Candida tropicalis; assay: Antifungal activity against Candida tropicalis ATCC 13803 after 72 hr by disk diffusion method; format: functional, organism-based
[2] = system: Candida albicans; assay: Antifungal activity against Candida albicans ATCC 10231 after 72 hr by disk diffusion method; format: functional, organism-based
[3] = system: Proteus vulgaris; assay: Antibacterial activity against Proteus vulgaris ATCC 8427 after 24 hr by disk diffusion method; format: functional, organism-based
[4] = system: Escherichia coli; assay: Antibacterial activity against Escherichia coli ATCC 25922 after 24 hr by disk diffusion method; format: functional, organism-based
[5] = system: Escherichia coli; assay: Antibacterial activity against Escherichia coli ATCC 35218 after 24 hr by disk diffusion method; format: functional, organism-based
[6] = system: Pseudomonas aeruginosa; assay: Antibacterial activity against Pseudomonas aeruginosa ATCC 27853 after 24 hr by disk diffusion method; format: functional, organism-based
[7] = system: Enterococcus faecalis; assay: Antibacterial activity against Enterococcus faecalis […] after 24 hr by disk diffusion method; format: functional, organism-based
[8] = system: Bacillus subtilis; assay: Antibacterial activity against Bacillus subtilis […] after 24 hr by disk diffusion method; format: functional, organism-based
[9] = system: Bacillus cereus; assay: Antibacterial activity against Bacillus cereus NRLL B-3008 after 24 hr by disk diffusion method; format: functional, organism-based
[10] = system: Staphylococcus aureus; assay: Antibacterial activity against Staphylococcus aureus ATCC 25923 after 24 hr by disk diffusion method; format: functional, organism-based
[11] = system: Escherichia coli; assay: Binding affinity to Escherichia coli pBR322 DNA assessed as appearance of DNA fragments at high concentration after 24 hr by agarose gel electrophoresis
[12] = system: Escherichia coli; assay: Binding affinity to Escherichia coli pBR322 DNA assessed as decrease in mobility of form 1 DNA at high concentration after 24 hr by agarose gel electrophoresis
[13] = system: Escherichia coli; assay: Covalent binding to Escherichia coli pBR322 DNA adenine-adenine site assessed as inhibition of Hind3-mediated restriction digestion at 1250 uM by restriction endonuclease analysis
[14] = system: Escherichia coli; assay: Covalent binding to Escherichia coli pBR322 DNA Guanine-guanine site assessed as inhibition of BamH1-mediated restriction digestion at 1250 uM by restriction endonuclease analysis
[15] = system: Escherichia coli; assay: Covalent binding to Escherichia coli pBR322 DNA assessed as appearance of small DNA fragments at high concentration after 24 hr by agarose gel electrophoresis
[16] = system: Escherichia coli; assay: Covalent binding to Escherichia coli pBR322 DNA assessed as increase in intensity of form 1 DNA at high concentration after 24 hr by agarose gel electrophoresis
[17] = system: Escherichia coli; assay: Binding affinity to Escherichia coli pBR322 DNA assessed as change in mobility of form 2 DNA at low concentration after 24 hr by agarose gel electrophoresis
[18] = system: Escherichia coli; assay: Binding affinity to Escherichia coli pBR322 DNA assessed as change in mobility of form 1 DNA at low concentration after 24 hr by agarose gel electrophoresis
[19] = system: Escherichia coli; assay: Covalent binding to Escherichia coli pBR322 DNA assessed as disappearance of form 2 DNA at high concentration after 24 hr by agarose gel electrophoresis
[20] = system: Escherichia coli; assay: Covalent binding to Escherichia coli pBR322 DNA assessed as increase in mobility of form 1 DNA at high concentration after 24 hr by agarose gel electrophoresis

Row | Activity [11] | Activity [12] | Activity [13] | Activity [14] | Activity [15] | Activity [16] | Activity [17] | Activity [18] | Activity [19] | Activity [20] | Structure (SMILES) | Activity [1] | Activity [2] | Activity [3] | Activity [4] | Activity [5] | Activity [6] | Activity [7] | Activity [8] | Activity [9] | Activity [10]
1 | Active | Active | Active | Active | – | – | – | – | – | – | CC(C)n1cnc2c(Sc3nnnn3C)ncnc21 | inactive | inactive | inactive | inactive | inactive | inactive | inactive | inactive | inactive | inactive
2 | – | – | Active | inactive | Active | Active | inactive | inactive | – | – | CCn1cnc2c(Nc3nnn[nH]3)ncnc21 | inactive | inactive | inactive | inactive | inactive | inactive | inactive | inactive | inactive | inactive
3 | – | – | Active | Active | – | – | – | – | Active | Active | CCn1cnc2c(Sc3nnnn3C)ncnc21 | inactive | inactive | inactive | inactive | inactive | inactive | inactive | inactive | inactive | inactive
4 | – | – | Active | inactive | Active | Active | inactive | inactive | – | – | CC(C)n1cnc2c(Nc3nnn[nH]3)ncnc21 | inactive | inactive | inactive | inactive | inactive | inactive | inactive | inactive | inactive | inactive
5 | Active | Active | Active | Active | – | – | – | – | – | – | CCCn1cnc2c(Sc3nnnn3C)ncnc21 | inactive | inactive | inactive | inactive | inactive | inactive | inactive | inactive | inactive | inactive
6 | – | Active | Active | Active | – | – | – | – | – | – | Cn1nnnc1Sc1ncnc2[nH]cnc12 | inactive | inactive | inactive | inactive | inactive | inactive | inactive | inactive | inactive | inactive
7 | Active | – | Active | Active | – | – | – | – | Active | – | CCOC(=O)Cn1cnc2c(Sc3nnnn3C)ncnc21 | inactive | inactive | inactive | inactive | inactive | inactive | inactive | inactive | inactive | inactive
8 | Active | – | Active | Active | – | – | – | – | Active | – | Cn1nnnc1Sc1ncnc2c1ncn2CC1CCC1 | inactive | inactive | inactive | inactive | inactive | inactive | inactive | inactive | inactive | inactive
9 | Active | – | Active | Active | – | – | – | – | Active | – | Cn1nnnc1Sc1ncnc2c1ncn2Cc1ccccc1 | inactive | inactive | inactive | inactive | inactive | inactive | inactive | inactive | inactive | inactive
10 | – | Active | Active | inactive | – | – | – | – | – | – | c1ccc(Cn2cnc3c(Nc4nnn[nH]4)ncnc32)cc1 | inactive | inactive | inactive | inactive | inactive | inactive | inactive | inactive | inactive | inactive
11 | Active | Active | Active | inactive | – | – | – | – | – | – | c1nc(Nc2nnn[nH]2)c2ncn(CC3CCC3)c2n1 | inactive | inactive | inactive | inactive | inactive | inactive | inactive | inactive | inactive | inactive
12 | Active | Active | Active | inactive | – | – | – | – | – | – | CCOC(=O)Cn1cnc2c(Nc3nnn[nH]3)ncnc21 | inactive | inactive | inactive | inactive | inactive | inactive | inactive | inactive | inactive | inactive
13 | – | – | Active | inactive | Active | Active | inactive | inactive | – | – | CCCCCCn1cnc2c(Nc3nnn[nH]3)ncnc21 | inactive | inactive | inactive | inactive | inactive | inactive | inactive | inactive | inactive | inactive
14 | – | – | Active | Active | – | – | – | – | – | Active | Cn1nnnc1Sc1ncnc2c1ncn2C | inactive | inactive | inactive | inactive | inactive | inactive | inactive | inactive | inactive | inactive

Row | Structure (SMILES) | Activity [11] | Activity [12] | Activity [13] | Activity [14] | Activity [15] | Activity [16] | Activity [17] | Activity [18] | Activity [19] | Activity [20] | Activity [1] | Activity [2] | Activity [3] | Activity [4] | Activity [5] | Activity [6] | Activity [7] | Activity [8] | Activity [9] | Activity [10]
15 | c1nc(Nc2nnn[nH]2)c2nc[nH]c2n1 | – | – | Active | inactive | Active | Active | inactive | inactive | – | – | inactive | inactive | inactive | inactive | inactive | inactive | inactive | inactive | inactive | inactive
16 | Cn1cnc2c(Nc3nnn[nH]3)ncnc21 | – | – | Active | inactive | Active | Active | inactive | inactive | – | – | inactive | inactive | inactive | inactive | inactive | inactive | inactive | inactive | inactive | inactive
